Laboratory results taken from publication PMC3273640 (Journal of Molecular Biology, 2011).

Assay: CD measurements of folding in water/TFE mixtures
Type: physicochemical
Conditions: CD in water/TFE mixtures (>= 2 M TFE), fit with Eq. S11

Row | folding free energy [kcal/mol] | Substance
1 | 4.8 ± 0.2 | Ac-CGWWLALALALALALALALALALALWWA-NH2 [WALP27]
2 | 4.6 ± 0.2 | Ac-CGWWLALALALALALALALALWWA-NH2 [WALP23]
